Reference: ChEMBL document CHEMBL1933021, “Novel and selective spiroindoline-based inhibitors of Sky kinase” (Bioorg Med Chem Lett, 2012)

Legend:
Cytochrome P450 2D6 = Cytochrome P450 2D6 (Homo sapiens, UniProt P10635); assay: Inhibition of CYP2D6 using dextromethorphan as substrate; assay type: ADME
[1] = Half life in po dosed Sprague-Dawley rat; assay type: ADME, organism-based; conditions: in vivo
[2] = target: Serine/threonine-protein kinase TAO3 (Homo sapiens, UniProt Q9H2K8); assay: Inhibition of TAOK3
[3] = target: Serine/threonine-protein kinase Sgk1 (Homo sapiens, UniProt O00141); assay: Inhibition of Sgk
Chain of Serine/threonine-protein kinase Sgk1 (O00141 whole entry): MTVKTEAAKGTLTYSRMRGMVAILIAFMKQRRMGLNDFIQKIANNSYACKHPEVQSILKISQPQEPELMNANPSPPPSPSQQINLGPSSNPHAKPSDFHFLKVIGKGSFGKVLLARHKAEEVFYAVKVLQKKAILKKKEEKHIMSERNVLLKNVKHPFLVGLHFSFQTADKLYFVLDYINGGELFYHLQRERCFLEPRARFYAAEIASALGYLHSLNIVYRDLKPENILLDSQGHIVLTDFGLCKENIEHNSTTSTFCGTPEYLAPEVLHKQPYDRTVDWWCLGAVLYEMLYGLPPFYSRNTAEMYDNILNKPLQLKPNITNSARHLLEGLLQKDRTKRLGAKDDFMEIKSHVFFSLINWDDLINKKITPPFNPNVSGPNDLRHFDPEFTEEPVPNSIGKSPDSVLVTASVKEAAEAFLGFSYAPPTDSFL

Chain of Cytochrome P450 2D6 (P10635 whole entry): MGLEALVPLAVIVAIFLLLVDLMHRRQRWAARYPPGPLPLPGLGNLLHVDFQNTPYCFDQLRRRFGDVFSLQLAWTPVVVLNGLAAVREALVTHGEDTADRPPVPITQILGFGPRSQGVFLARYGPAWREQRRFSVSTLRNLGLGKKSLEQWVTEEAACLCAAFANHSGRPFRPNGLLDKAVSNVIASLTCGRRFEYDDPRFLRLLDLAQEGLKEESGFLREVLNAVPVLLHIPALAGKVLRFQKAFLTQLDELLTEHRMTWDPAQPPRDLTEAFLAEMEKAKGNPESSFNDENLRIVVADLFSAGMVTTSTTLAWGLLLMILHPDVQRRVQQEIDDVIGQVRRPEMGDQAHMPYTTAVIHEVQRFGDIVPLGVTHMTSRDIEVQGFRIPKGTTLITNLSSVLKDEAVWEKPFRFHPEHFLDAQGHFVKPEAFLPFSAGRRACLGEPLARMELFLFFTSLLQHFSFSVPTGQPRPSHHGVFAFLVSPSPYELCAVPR
Chain of Serine/threonine-protein kinase TAO3 (Q9H2K8 whole entry): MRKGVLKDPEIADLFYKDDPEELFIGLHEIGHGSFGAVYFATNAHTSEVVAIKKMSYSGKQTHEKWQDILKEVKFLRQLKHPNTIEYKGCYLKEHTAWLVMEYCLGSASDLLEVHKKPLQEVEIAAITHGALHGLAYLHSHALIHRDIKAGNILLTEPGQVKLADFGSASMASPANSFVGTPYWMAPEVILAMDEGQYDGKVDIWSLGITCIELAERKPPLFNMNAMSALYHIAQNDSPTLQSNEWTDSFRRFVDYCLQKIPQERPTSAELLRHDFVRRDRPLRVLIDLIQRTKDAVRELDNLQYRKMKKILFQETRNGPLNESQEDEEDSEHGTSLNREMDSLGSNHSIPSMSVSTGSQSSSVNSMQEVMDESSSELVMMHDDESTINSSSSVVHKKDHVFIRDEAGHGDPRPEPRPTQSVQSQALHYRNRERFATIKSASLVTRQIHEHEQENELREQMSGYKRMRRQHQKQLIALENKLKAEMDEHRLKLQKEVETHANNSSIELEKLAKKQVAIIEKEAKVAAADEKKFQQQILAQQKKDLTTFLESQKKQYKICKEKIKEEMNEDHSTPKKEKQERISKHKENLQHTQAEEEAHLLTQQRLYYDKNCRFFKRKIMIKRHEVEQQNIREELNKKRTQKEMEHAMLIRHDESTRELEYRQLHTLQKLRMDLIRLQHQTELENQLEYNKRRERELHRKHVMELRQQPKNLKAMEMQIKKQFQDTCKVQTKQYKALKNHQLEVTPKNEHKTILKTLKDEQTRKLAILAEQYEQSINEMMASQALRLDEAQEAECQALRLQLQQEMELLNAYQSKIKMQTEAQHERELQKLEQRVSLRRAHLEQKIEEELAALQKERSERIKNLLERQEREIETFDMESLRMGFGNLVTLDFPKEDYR

Row | IC50 (Cytochrome P450 2D6) | half-life [1] | IC50 [2] | IC50 [3] | SMILES
1 | 0.655 µM | 4 h |  |  | O=C(c1cc2ccc(F)cc2[nH]1)N1C[C@]2(CCN(C3CCNC3)C2)c2ccccc21 (some centres undefined)
2 |  |  | > 30 µM | > 30 µM | C[C@@H]1CCC(N2CC[C@]3(CN(C(=O)c4cc5ccc(F)cc5[nH]4)c4ccccc43)C2)CN1 (some centres undefined)
